Like-named read-outs stand apart in the source and are kept apart here.
How the values were obtained:
[1] = tested on: wild-type HCV replicon in Huh7 cells; test: Cell-based drug susceptibility (replicon) assay, wild-type; details: Hepatitis C virus, read-out: Replicon EC50 (nM) WT
Procedure, shortened: (§1)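 Protease variants were introduced by site-directed mutagenesis into a genotype 1b Con1 luciferase replicon containing genotype 1a H77 NS3. Each replicon RNA was electroporated into Huh7 cells. Inhibitor was titrated upward. Luminescence was measured after 96 h.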

[2] = molecular target: GT1a D168A NS3/4A protease; assay type: biochemical, Hepatitis C virus; details: Table 3; Ki D168A relative to GT1a WT
Procedure, shortened: (§2)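 Enzyme (GT1a wild type or D168A mutant, 2 nM) was preincubated with inhibitor dilutions for 1 h at room temperature in pH 7.5 Tris buffer with glycerol, DTT, LDAO and 4% DMSO.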

[3] = molecular target: T1, wild-type GT1a NS3/4A protease (UniProt P27958, C1185S, species not given); assay type: biochemical, Hepatitis C virus; details: read-out: Ki (nM) GT1a WT NS3/4A Protease
T1 construct: Ki (nM) GT1a WT NS3/4A Protease
Procedure, shortened: as §2

[4] = molecular target: T2, GT1a D168A NS3/4A protease (UniProt P27958, C1185S/D1194A, species not given); assay type: biochemical, Hepatitis C virus; details: read-out: Ki (nM) GT1a D168A NS3/4A Protease
T2 construct: Ki (nM) GT1a D168A NS3/4A Protease
Procedure, shortened: as §2

GT3a NS3/4A protease = molecular target: T3, GT3a NS3/4A protease (Hepatitis C virus genotype 3a, UniProt Q81495); test: biochemical; details: for Ki (Fold change) GT3a NS3/4A Protease: Table 3, Ki GT3a relative to GT1a WT
T3 construct: drug-resistant variant D168A, and GT3a NS3/4A protease; made in house; host or cells: Escherichia coli BL21(DE3)
T3 sequence (Q81495 1033-1214): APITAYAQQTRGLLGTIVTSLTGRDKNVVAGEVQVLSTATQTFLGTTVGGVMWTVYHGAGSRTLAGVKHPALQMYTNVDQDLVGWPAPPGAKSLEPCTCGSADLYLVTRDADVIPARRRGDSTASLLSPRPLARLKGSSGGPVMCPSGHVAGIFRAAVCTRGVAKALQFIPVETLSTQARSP
Procedure, shortened: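 Protease at 2 nM pre-incubated 1 h at room temperature with increasing inhibitor concentrations in 50 mM Tris, 5% glycerol, 10 mM DTT, 0.6 mM LDAO, 4% DMSO. Three independent data sets per inhibitor and construct.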

[5] = tested on: HCV replicon D168A variant in Huh7 cells; test: microbe, parasite or virus in culture; assay type: cell-based, Hepatitis C virus; details: for EC50: Hepatitis C virus; for Replicon EC50 (Fold change) D168A: Table 4, relative to WT replicon
Procedure, shortened: as §1

[6] = tested on: HCV replicon A156T variant in Huh7 cells; test: microbe, parasite or virus in culture; assay type: cell-based, Hepatitis C virus; details: for EC50: Hepatitis C virus; for Replicon EC50 (Fold change) A156T: Table 4, relative to WT replicon
Procedure, shortened: as §1

[7] = tested on: HCV replicon R155K variant in Huh7 cells; test: microbe, parasite or virus in culture; assay type: cell-based, Hepatitis C virus; details: for EC50: Hepatitis C virus; for Replicon EC50 (Fold change) R155K: Table 4, relative to WT replicon
Procedure, shortened: as §1

[8] = tested on: HCV replicon D168V variant in Huh7 cells; test: microbe, parasite or virus in culture; assay type: cell-based, Hepatitis C virus; details: for EC50: Hepatitis C virus; for Replicon EC50 (Fold change) D168V: Table 4, relative to WT replicon
Procedure, shortened: as §1

[9] = rcm bond, 15-membered ring, Zhan 1b, 1,2-DCE, 70.0 °C
[10] = Huh-7, 96 h, read-out: Replicon EC50 (nM) D168A, Table 2, Huh7 cells, luciferase 96 h
[11] = Huh-7, read-out: Replicon EC50 (nM) D168A, Table 4
[12] = Huh-7, 96 h, read-out: Replicon EC50 (nM) A156T, Table 2, Huh7 cells, luciferase 96 h
[13] = Huh-7, read-out: Replicon EC50 (nM) A156T, Table 4
[14] = Huh-7, read-out: Replicon EC50 (nM) R155K, Table 4
[15] = Huh-7, read-out: Replicon EC50 (nM) D168V, Table 4
[16] = Huh-7, 96 h, Table 2, Huh7 cells, luciferase 96 h
[17] = Huh-7, 96 h, read-out: Replicon EC50 (nM) R155K, Table 2, Huh7 cells, luciferase 96 h
[18] = Huh-7, 96 h, read-out: Replicon EC50 (nM) D168V, Table 2, Huh7 cells, luciferase 96 h

SMILES	EC50 ([1]; Huh-7, Table 4)	Ki (Fold change) GT1a D168A NS3/4A Protease [2]	Ki ([3]; Table 1)	Ki ([3]; Table 3)	Ki ([4]; Table 1)	Ki ([4]; Table 3)	Ki (GT3a NS3/4A protease)	Ki (Fold change) GT3a NS3/4A Protease (GT3a NS3/4A protease)	EC50 [5, 10]	EC50 [5, 11]	Replicon EC50 (Fold change) D168A [5]	EC50 [6, 12]	EC50 [6, 13]	Replicon EC50 (Fold change) A156T [6]	EC50 [7, 14]	Replicon EC50 (Fold change) R155K [7]	EC50 [8, 15]	Replicon EC50 (Fold change) D168V [8]	EC50 [1, 16]	EC50 [8, 18]	also measured
COc1ccc2nc(Cl)c(O[C@@H]3C[C@H]4C(=O)N[C@]5(C(=O)NS(=O)(=O)C6(C)CC6)C[C@H]5/C=C\CCCCC[C@H](NC(=O)OC(C)(C)C)C(=O)N4C3)nc2c1 [Compound 19c, tert-Butyl ((2R,6S,13aS,14aR,16aS,Z)-2-((3-chloro-7-methoxyquinoxalin-2-yl)oxy)-14a-(((1-methylcyclopropyl)sulfonyl)carbamoyl)-5,16-dioxo-1,2,3,5,6,7,8,9,10,11,13a,14,14a,15,16,16a-hexadecahydrocyclopropa[e]pyrrolo[1,2-a][1,4]diazacyclopentadecin-6-yl)carbamate]	0.18 nM	(70) fold	1.11 nM	1.11 nM	77.7 nM	77.7 ± 6.1 nM	53.6 nM	(48) fold	< 2 nM	1.07 nM	(6) fold	8.86 nM	8.86 nM	(49) fold	0.4 nM	(2) fold	0.49 nM	(3) fold			ring closure, isolated yield ([9]; 5.0 mM): 86%
CCc1nc2ccc(OC)cc2nc1O[C@@H]1C[C@H]2C(=O)N[C@]3(C(=O)NS(=O)(=O)C4(C)CC4)C[C@H]3/C=C\CCCCC[C@H](NC(=O)OC(C)(C)C)C(=O)N2C1 [Compound 19a, tert-Butyl ((2R,6S,13aS,14aR,16aS,Z)-2-((3-ethyl-7-methoxyquinoxalin-2-yl)oxy)-14a-(((1-methylcyclopropyl)sulfonyl)carbamoyl)-5,16-dioxo-1,2,3,5,6,7,8,9,10,11,13a,14,14a,15,16,16a-hexadecahydrocyclopropa[e]pyrrolo[1,2-a][1,4]diazacyclopentadecin-6-yl)carbamate]	0.43 nM	(30) fold	1.82 nM	1.82 nM	55.2 nM	55.2 ± 5.3 nM	171 nM	(94) fold	4.97 nM	4.97 nM	(12) fold	4.52 nM	4.52 nM	(11) fold	1.8 nM	(4) fold	6.42 nM	(15) fold	0.43 nM	6.42 nM	EC50 [7, 17]: 1.8 nM; ring closure, isolated yield ([9]; from C=CCCCCC[C@H](NC(=O)OC(C)(C)C)C(=O)N1C[C@H](Oc2nc3cc(OC)ccc3nc2CC)C[C@H]1C(=O)N[C@]1(C(=O)NS(=O)(=O)C2(C)CC2)C[C@H]1C=C, 6.0 mM): 71%
COc1ccc2nc(C)c(O[C@@H]3C[C@H]4C(=O)N[C@]5(C(=O)NS(=O)(=O)C6CC6)C[C@H]5/C=C\CCCCC[C@H](NC(=O)OC(C)(C)C)C(=O)N4C3)nc2c1 [Compound 18b, tert-Butyl ((2R,6S,13aS,14aR,16aS,Z)-14a-((cyclopropylsulfonyl)carbamoyl)-2-((7-methoxy-3-methylquinoxalin-2-yl)oxy)-5,16-dioxo-1,2,3,5,6,7,8,9,10,11,13a,14,14a,15,16,16a-hexadecahydrocyclopropa[e]pyrrolo[1,2-a][1,4]diazacyclopentadecin-6-yl)carbamate]	0.39 nM	(15) fold	3.4 nM	3.4 nM	50.9 nM	50.9 ± 3.7 nM	152 nM	(45) fold	4.24 nM	4.24 nM	(11) fold	5.95 nM	5.95 nM	(15) fold	1.17 nM	(3) fold	3.17 nM	(8) fold	0.39 nM	3.17 nM	EC50 [7, 17]: 1.17 nM; ring closure, isolated yield ([9]; 6.5 mM): 45%
COc1ccc2nc(Cl)c(O[C@@H]3C[C@H]4C(=O)N[C@]5(C(=O)NS(=O)(=O)C6CC6)C[C@H]5/C=C\CCCCC[C@H](NC(=O)OC(C)(C)C)C(=O)N4C3)nc2c1 [Compound 18c, tert-Butyl ((2R,6S,13aS,14aR,16aS,Z)-2-((3-chloro-7-methoxyquinoxalin-2-yl)oxy)-14a-((cyclopropylsulfonyl)carbamoyl)-5,16-dioxo-1,2,3,5,6,7,8,9,10,11,13a,14,14a,15,16,16a-hexadecahydrocyclopropa[e]pyrrolo[1,2-a][1,4]diazacyclopentadecin-6-yl)carbamate]	0.16 nM	(37) fold	1.07 nM	1.07 nM	39.8 nM	39.8 ± 3.4 nM	67.5 nM	(63) fold	< 2 nM	1.42 nM	(9) fold	16.2 nM	16.2 nM	(101) fold	0.44 nM	(3) fold	0.73 nM	(5) fold		< 1 nM	ring closure, isolated yield ([9]; 6.3 mM): 50%

Source: US11472778B2, “Hepatitis C virus NS3/4A protease inhibitors” (priority 2017, dated 2022)
